# Values quoted from earlier work, collected in patent publication EP3231454B1, “BONE CEMENT COMPRISING MICROENCAPSULATED ANTIMICROBIAL” (UNIVERSIDAD PONTIFICIA COMILLAS, priority 2016, dated 2017).
# Details: addition of 1 g of vancomycin to bone cement
smiles,measurement,value
CN[C@H](CC(C)C)C(=O)N[C@H]1C(=O)N[C@@H](CC(N)=O)C(=O)N[C@H]2C(=O)N[C@H]3C(=O)N[C@H](C(=O)N[C@H](C(=O)O)c4cc(O)cc(O)c4-c4cc3ccc4O)[C@H](O)c3ccc(c(Cl)c3)Oc3cc2cc(c3O[C@@H]2O[C@H](CO)[C@@H](O)[C@H](O)[C@H]2O[C@H]2C[C@](C)(N)[C@H](O)[C@H](C)O2)Oc2ccc(cc2Cl)[C@H]1O [vancomycin],reduction in bending resistance,more than 20%
